Where two headings read alike, the source gives them in different places. Marks after values point to notes of the source that are not given here.
Assays:
Pyrenophora teres = assay: In vivo test on Pyrenophora teres (barley net blotch); conditions: dose of 500 ppm; barley plants; grading 12 days after contamination
Procedure: In Vivo Test on Pyrenophora teres (Barley Net Blotch)
The active ingredients tested are prepared by homogenization in a mixture of acetone/Tween/DMSO, then diluted with water to obtain the desired active material concentration.
Barley plants (Plaisant variety), sown on a 50/50 peat soil-pozzolana substrate in starter cups and grown at 12° C., are treated at the 1-leaf stage (10 cm tall) by spraying with the active ingredient prepared as described above.
Plants, used as controls, are treated with an aqueous solution not containing the active material.
After 24 hours, the plants are contaminated by spraying them with an aqueous suspension of Pyrenophora teres spores (12,000 spores per ml). The spores are collected from a 12-day-old culture. The contaminated barley plants are incubated for 24 hours at about 20° C. and at 100% relative humidity, and then for 12 days at 80% relative humidity.
Grading is carried out 12 days after the contamination, in comparison with the control plants.

Fusarium graminearum = type: cell-based; conditions: 50 μM; for % Inhibition of DON/AcDON at 50 μM: 7 days at 28° C.
Alternaria solani = assay: Alternaria test (tomato) / protective; type: in vivo; conditions: 500 ppm active compound, protective spray, evaluated 7 days after inoculation
Procedure: Alternaria Test (Tomato)/Protective
Solvent: 49 parts by weight of N,N-dimethylformamide
Emulsifier: 1 part by weight of alkylaryl polyglycol ether
To produce a suitable preparation of active compound, 1 part by weight of active compound is mixed with the stated amounts of solvent and emulsifier, and the concentrate is diluted with water to the desired concentration.
To test for protective activity, young tomato plants are sprayed with the preparation of active compound at the stated application rate. […] The plants then remain at 96% rel. atmospheric humidity and a temperature of 20° C.
Evaluation is carried out 7 days after the inoculation. 0% means an efficacy which corresponds to that of the control, whereas an efficacy of 100% means that no infection is observed.

## CCn1cc(-c2ccncc2)c(-c2ccc(Cl)s2)n1 [Example 57]
Pyrenophora teres
  protection: 95%
Minor isomer, main value of the example measured by method [b], pH 2.7
  logP value of the minor isomer (in parenthesis in column Isomer ratio [d]): (1.42)
pH 2.7
  log p: 1.5^[b]

## CCC(C)n1cc(-c2ccnc(NCC3CC3)n2)c(-c2ccc(Cl)s2)n1 (centres unmarked) [Example 187]
Pyrenophora teres
  protection: 70%
pH 2.3
  log p: 3.41^[a]

## CCOC(=O)Nc1cc(-c2cn(C)nc2-c2ccc(Cl)s2)ccn1 [Example 271]
Pyrenophora teres
  protection: 90%
Fusarium graminearum
  % Inhibition of fungal growth at 50 μM: 20%
  % Inhibition of DON/AcDON at 50 μM: 94%
pH 2.7
  log p: 2.56^[b]

## CCC(C)n1cc(-c2ccnc(NC(=O)c3cccs3)c2)c(-c2ccc(Cl)s2)n1 (centres unmarked) [Example 238]
Pyrenophora teres
  protection: 80%
Alternaria solani
  efficacy: 70%
pH 2.7
  log p: 4.37^[b]

## CCC(C)n1cc(-c2ccnc(NC(=O)C(C)(C)O)c2)c(-c2ccc(Cl)s2)n1 (centres unmarked) [Example 210]
Pyrenophora teres
  protection: 70%
Alternaria solani
  efficacy: 90%
pH 2.7
  log p: 4.24^[b]

## CCn1cc(-c2ccnc(NC(=O)C(C)(C)O)c2)c(-c2ccc(Cl)s2)n1 [Example 212]
Pyrenophora teres
  protection: 80%
Alternaria solani
  efficacy: 70%
pH 2.7
  log p: 2.73^[b]

## CC(C)n1cc(-c2ccnc(NC(=O)Cc3ccccc3)c2)c(-c2ccc(Cl)s2)n1 [Example 245]
Pyrenophora teres
  protection: 100%
pH 2.7
  log p: 3.94^[b]

## CC(C)Cn1cc(-c2ccncn2)c(-c2ccc(Cl)s2)n1 [Example 26]
Pyrenophora teres
  protection: 70%
pH 2.7
  log p: 3.31^[b]

## Clc1ccc(-c2nn(C3CCCCC3)cc2-c2ccncc2)s1 [Example 11]
Pyrenophora teres
  protection: 89%
pH 2.7
  log p: 2.54^[b]

## CCC(C)n1cc(-c2ccnc(NC3CC3)n2)c(-c2ccc(Cl)s2)n1 (centres unmarked) [Example 195]
Pyrenophora teres
  protection: 95%
Fusarium graminearum
  % Inhibition of fungal growth at 50 μM: 94%
  % Inhibition of DON/AcDON at 50 μM: 99%
pH 2.3
  log p: 2.9^[a]

## CC(C)OC(=O)Nc1cc(-c2cn(C(C)C)nc2-c2ccc(Cl)s2)ccn1 [Example 242]
Pyrenophora teres
  protection: 70%
Alternaria solani
  efficacy: 90%
pH 2.7
  log p: 3.85^[b]

## Cn1cc(-c2ccnc(NC(=O)C3CCC3)c2)c(-c2ccc(Cl)s2)n1 [Example 275]
Pyrenophora teres
  protection: 90%
Fusarium graminearum
  % Inhibition of fungal growth at 50 μM: 95%
  % Inhibition of DON/AcDON at 50 μM: 99%
pH 2.7
  log p: 2.52^[b]

## CC(C)(C)Cn1cc(-c2ccncc2)c(-c2ccc(Cl)s2)n1 [Example 24]
Pyrenophora teres
  protection: 90%
pH 2.7
  log p: 2.39^[b]

## C[C@H](O)C(=O)Nc1cc(-c2cn(C)nc2-c2ccc(Cl)s2)ccn1 [Example 207]
Pyrenophora teres
  protection: 70%
pH 2.7
  log p: 2.11^[b]

## CCC(C)n1nc(-c2ccc(Cl)s2)c(-c2ccncc2)c1F (centres unmarked) [Example 213]
Pyrenophora teres
  protection: 70%
Alternaria solani
  efficacy: 80%
pH 2.7
  log p: 2.61^[b]

## Cn1cc(-c2ccnc(NC(=O)c3ccccc3)c2)c(-c2ccc(Cl)s2)n1 [Example 272]
Pyrenophora teres
  protection: 70%
pH 2.7
  log p: 3.09^[b]

## CCC(C)n1cc(-c2ccnc(N(C(C)=O)C(C)=O)n2)c(-c2ccc(Cl)s2)n1 (centres unmarked) [Example 150]
Pyrenophora teres
  protection: 95%
pH 2.3
  log p: 3.72^[a]

## CC(C)n1cc(-c2ccnc(NC(=O)C(C)(C)O)c2)c(-c2ccc(Cl)s2)n1 [Example 211]
Pyrenophora teres
  protection: 95%
Alternaria solani
  efficacy: 90%
pH 2.7
  log p: 3.17^[b]

## CCOC(=O)Nc1cc(-c2cn(CC)nc2-c2ccc(Cl)s2)ccn1 [Example 265]
Pyrenophora teres
  protection: 70%
Fusarium graminearum
  % Inhibition of fungal growth at 50 μM: 23%
  % Inhibition of DON/AcDON at 50 μM: 87%
pH 2.7
  log p: 3^[b]

## CCC(C)n1cc(-c2ccnc(NC(=O)c3ccsc3)c2)c(-c2ccc(Cl)s2)n1 (centres unmarked) [Example 230]
Pyrenophora teres
  protection: 70%
pH 2.7
  log p: 4.21^[b]

## CCn1cc(-c2ccnc(NC(=O)c3cccs3)c2)c(-c2ccc(Cl)s2)n1 [Example 267]
Pyrenophora teres
  protection: 80%
Fusarium graminearum
  % Inhibition of fungal growth at 50 μM: 47%
  % Inhibition of DON/AcDON at 50 μM: 89%
pH 2.7
  log p: 3.48^[b]

## CC(C)n1cc(-c2ccnc(NC(=O)c3cccs3)c2)c(-c2ccc(Cl)s2)n1 [Example 241]
Pyrenophora teres
  protection: 80%
pH 2.7
  log p: 3.96^[b]

## CC(C)n1cc(-c2ccnc(NC(=O)c3ccsc3)c2)c(-c2ccc(Cl)s2)n1 [Example 232]
Pyrenophora teres
  protection: 80%
Alternaria solani
  efficacy: 80%
pH 2.7
  log p: 3.79^[b]

## CCC(C)n1cc(-c2ccnc(NC(C)COC)n2)c(-c2ccc(Cl)s2)n1 (centres unmarked) [Example 186]
Pyrenophora teres
  protection: 70%
pH 2.3
  log p: 3.21^[a]

## CCC(C)n1cc(-c2ccnc(NC(C)=O)n2)c(-c2ccc(Cl)s2)n1 (centres unmarked) [Example 151]
Pyrenophora teres
  protection: 90%
pH 2.3
  log p: 3^[a]

## CC(C)CC(C)n1cc(-c2ccncc2)c(-c2ccc(Cl)s2)n1 (centres unmarked) [Example 13]
Pyrenophora teres
  protection: 94%
pH 2.7
  log p: 2.7^[b]

## CC(C)n1cc(-c2ccnc(NC3CC3)n2)c(-c2ccc(Cl)s2)n1 [Example 177]
Pyrenophora teres
  protection: 95%
Alternaria solani
  efficacy: 90%
pH 2.3
  log p: 2.59^[a]

## CCn1cc(-c2ccnc(NC(=O)c3ccsc3)c2)c(-c2ccc(Cl)s2)n1 [Example 254]
Pyrenophora teres
  protection: 90%
Alternaria solani
  efficacy: 70%
pH 2.7
  log p: 3.29^[b]

## CC(C)n1cc(-c2ccnc(NCC3CC3)n2)c(-c2ccc(Cl)s2)n1 [Example 183]
Pyrenophora teres
  protection: 70%
pH 2.3
  log p: 3.02^[a]

## Fc1ccc(-c2nn(CC(F)(F)F)cc2-c2ccncc2)s1 [Example 378]
Fusarium graminearum
  % Inhibition of fungal growth at 50 μM: 54%
  % Inhibition of DON/AcDON at 50 μM: 99%
Alternaria solani
  efficacy: 100%
pH 2.7
  log p: 1.64^[b]
  logP value of the minor isomer: (1.46)

## CCn1cc(-c2ccnc(NC(=O)[C@H](C)O)c2)c(-c2ccc(Cl)s2)n1 [Example 206]
Pyrenophora teres
  protection: 90%
Alternaria solani
  efficacy: 80%
pH 2.7
  log p: 2.37^[b]

## CCn1cc(-c2ccnc(NC(=O)C(C)(C)C)c2)c(-c2ccc(Cl)s2)n1 [Example 255]
Pyrenophora teres
  protection: 100%
Alternaria solani
  efficacy: 90%
pH 2.7
  log p: 3.37^[b]

## CCOC(=O)Nc1cc(-c2cn(C(C)C)nc2-c2ccc(Cl)s2)ccn1 [Example 259]
Pyrenophora teres
  protection: 80%
Alternaria solani
  efficacy: 90%
pH 2.7
  log p: 3.46^[b]

## CCn1cc(-c2ccncc2)c(-c2cc3ccsc3s2)n1 [Example 329]
Fusarium graminearum
  % Inhibition of fungal growth at 50 μM: 85%
  % Inhibition of DON/AcDON at 50 μM: 98%
Alternaria solani
  efficacy: 94%
pH 2.7
  log p: 1.57^[b]

## CC(C)C(=O)Nc1nccc(-c2cn(C(C)C)nc2-c2ccc(Cl)s2)n1 [Example 174]
Pyrenophora teres
  protection: 90%
pH 2.3
  log p: 3.29^[a]

## CCCc1c(-c2ccnc(NC(=O)CC)c2)c(-c2sccc2C)nn1C [Example 166]
Pyrenophora teres
  protection: 80%
pH 2.7
  log p: 2.29^[b]
  logP value of the minor isomer: 2.39^[b])
pH 7.8
  log p: 2.71^[c];
  logP value of the minor isomer: (2.84^[c];

## CCC(CC)n1cc(-c2ccncc2)c(-c2cc3ccsc3s2)n1 [Example 333]
Fusarium graminearum
  % Inhibition of fungal growth at 50 μM: 86%
  % Inhibition of DON/AcDON at 50 μM: 98%
Alternaria solani
  efficacy: 94%
pH 2.7
  log p: 2.3^[b]

## C#CCNc1nccc(-c2cn(C(C)CC)nc2-c2ccc(Cl)s2)n1 (centres unmarked) [Example 188]
Pyrenophora teres
  protection: 78%
pH 2.3
  log p: 3.68^[a]

## CCC(C)n1nc(-c2ccc(Cl)s2)c(-c2ccncc2)c1Cl (centres unmarked) [Example 201]
Fusarium graminearum
  % Inhibition of fungal growth at 50 μM: 39%
  % Inhibition of DON/AcDON at 50 μM: 94%
Alternaria solani
  efficacy: 78%
pH 2.7
  log p: 3.44^[b]

## C=CC(C)n1cc(-c2ccncc2)c(-c2ccc(Br)s2)n1 (centres unmarked) [Example 389]
Fusarium graminearum
  % Inhibition of fungal growth at 50 μM: 96%
  % Inhibition of DON/AcDON at 50 μM: 99%
Alternaria solani
  efficacy: 94%
pH 2.7
  log p: 2.03^[b]
  logP value of the minor isomer: (1.88)

## C=CC(C)n1cc(-c2ccncc2)c(-c2ccc(F)s2)n1 (centres unmarked) [Example 376]
Fusarium graminearum
  % Inhibition of fungal growth at 50 μM: 84%
  % Inhibition of DON/AcDON at 50 μM: 99%
Alternaria solani
  efficacy: 100%
pH 2.7
  log p: 1.73^[b]

## CC(=O)Nc1nccc(-c2cn(C(C)C)nc2-c2ccc(Cl)s2)n1 [Example 176]
Pyrenophora teres
  protection: 90%
pH 2.3
  log p: 2.59^[a]

## FCCn1cc(-c2ccncc2)c(-c2cc3ccsc3s2)n1 [Example 367]
Fusarium graminearum
  % Inhibition of fungal growth at 50 μM: 78%
  % Inhibition of DON/AcDON at 50 μM: 99%
Alternaria solani
  efficacy: 78%
pH 2.7
  log p: 1.45^[b]

## C=CC(C)n1cc(-c2ccncc2)c(-c2cc3ccsc3s2)n1 (centres unmarked) [Example 368]
Fusarium graminearum
  % Inhibition of fungal growth at 50 μM: 100%
  % Inhibition of DON/AcDON at 50 μM: 99%
Alternaria solani
  efficacy: 78%
pH 2.7
  log p: 1.94^[b]

## CCC(C)n1cc(-c2ccnc(N)n2)c(-c2ccc(Cl)s2)n1 (centres unmarked) [Example 193]
Pyrenophora teres
  protection: 95%
pH 2.3
  log p: 2.3^[a]

## Cn1cc(-c2ccnc(NC(=O)C(C)(C)O)c2)c(-c2ccc(Cl)s2)n1 [Example 208]
Pyrenophora teres
  protection: 80%
pH 2.7
  log p: 2.26^[b]

## FC(F)Cn1cc(-c2ccncc2)c(-c2cc3ccsc3s2)n1 [Example 371]
Fusarium graminearum
  % Inhibition of fungal growth at 50 μM: 82%
  % Inhibition of DON/AcDON at 50 μM: 99%
Alternaria solani
  efficacy: 78%
pH 2.7
  log p: 1.63^[b]

From patent US8685974B2 (Bayer CropScience AG, priority 2009, dated 2014)
